# Experimental data taken from patent US10335365B2, “Bladder cancer specific ligand peptides” (The Regents of the University of California, priority 2009, dated 2019).
# Positions of bridges follow the written chain, without caps; N, C: chain ends. Non-standard residues stand in square brackets, D forms with d. No end group written: not given here.
# Test system: 5637 bladder cancer cells
# Test: Alanine walk and X5 glycine addition, bead binding to 5637 cells
# Set-up: species or system human
# Conditions: compared with parental PLZ4
# Description: FIG. 6A-C. Binding of PLZ4 to ανβ3 integrin A. PLZ4 binds to ανβ3 integrin. Beads coated with PLZ4 peptides were incubated with K562 cells transfected with different integrin subunits. PLZ4 can only bind to K562 cells when ανβ3 integrin is expressed on the surface. B. Alanine walk to determine the amino acids important for cell binding. Each amino acid in PLZ4 (SEQ ID NO: 5) was replaced with alanine one at a time to generate beads covered with new peptides (SEQ ID NOS 24-30, respectively, in order of appearance) (alanine walk), and tested for their binding to 5637 bladder cancer cells. Semi-quantitative system was used to determine binding activity: ++++ means very strong binding with 75-100% bead surface covered by cells; +++ means strong binding with 50-74% bead surface covered by cells; […] binding with 25-49% bead surface covered by cells; + means weak binding with 1-24% bead surface covered by cells; − means no binding. C. The effects of glycine residues at the X5 position on the binding of PLZ4 to bladder cancer cells. The peptides on beads in each panel have the same backbone sequence (cQDGRKGFc; SEQ ID NO:11) as PLZ4 (cQDGRMGFc; SEQ ID NO:12) except the M at the X5 position has been replaced with K. One (c) to six (h) numbers of glycine were conjugated to K from Panel c to h (SEQ ID NO:13). The OBOC beads were incubated with 5637 TCC cells. […]
substance,measurement,value
cQDGRKGFc ([dC]QDGRKGF[dC]; disulfide 1-9) [PLZ4 backbone with the M at the X5 position replaced with K],binding of modified peptides on beads to 5637 cells,no significant changes in binding
